This passage reports IC50 results from BindingDB's records for doi:10.1016/j.ejmech.2019.05.051 (Zhejiang Academy of Medical Sciences, 2019).

As usually defined, the IC50 is the midpoint of a concentration-inhibition curve. Low values mean inhibition by little substance, high ones a need for much substance.

The assay can be described thus: Inhibition of rat brain cortex AChE using acetylthiocholine iodide as substrate incubated for 15 mins by spectrophotometry.
Molecule `CCN(C)C(=O)Oc1cc(C(C)N(C)C)cc2cccnc12` (stereo not given) yielded a half-inhibitory concentration (IC50) of 1.2 µM.

`CCN(CC)C(=O)Oc1cc(C(C)N(C)C)cc2cccnc12` (stereo not given) displayed an IC50 of 13.6 µM.

Molecule `CC(c1cc(OC(=O)N2CCCCC2)c2ncccc2c1)N(C)C` (stereo not given) displayed an IC50 of 20.6 µM.

Turning to `CC(c1cc(OC(=O)N(C)C)c2ncccc2c1)N1CCOCC1` (stereo not given), the midpoint of inhibition, the IC50, lay at 69.9 µM.

In turn, `CC(c1cc(OC(=O)N2CCCC2)c2ncccc2c1)N1CCOCC1` (stereo not given) yielded a 50% inhibitory concentration (IC50) of 48.6 µM.

`CC(c1cc(OC(=O)N2CCOCC2)c2ncccc2c1)N1CCOCC1` (stereo not given) gave a 50% inhibitory concentration (IC50) of 8.3 µM.

As for `CCN(C)C(=O)Oc1cc(C(C)N(CC)CC)cc2cccnc12` (stereo not given), the IC50 was determined as 41.2 µM.

`CCN(C)C(=O)Oc1cc(C(C)N2CCCCC2)cc2cccnc12` (stereo not given): the IC50 came out at 29 µM.

Regarding `CCN(C)C(=O)Oc1cc(C(C)N2CCN(C)CC2)cc2cccnc12` (stereo not given), the half-inhibitory concentration (IC50) is 54.7 µM.

`CCN(C)C(=O)Oc1cc(C(C)N2CCCC2)cc2cccnc12` (stereo not given) returned an IC50 of 18.1 µM.

On to `CC(c1cc(OC(=O)N2CCCC2)c2ncccc2c1)N(C)C` (stereo not given), for which the IC50 was 28.6 µM.

Molecule `CC(c1cc(OC(=O)N(C)C)c2ncccc2c1)N(C)C` (stereo not given) yielded an IC50 of 16.3 µM.

In turn, `CC(c1cc(OC(=O)N2CCOCC2)c2ncccc2c1)N(C)C` (stereo not given) returned an IC50 of 8.8 µM.

For `CCN(C)C(=O)Oc1cc(C(C)N(C)CC)cc2cccnc12` (stereo not given), the IC50 was 40.7 µM.

Molecule `CCN(C)C(=O)Oc1cccc([C@H](C)N(C)C)c1` [2,3-dihydroxybutanedioic acid; 3-[(1S)-1-(dimethylamino)ethyl]phenyl N-ethyl-N-methylcarbamate] displayed a half-inhibitory concentration (IC50) of 9 µM.
